Broadly, the IC50 is the concentration that inhibits the measured activity by half.

The experiment addresses T1, human CTPS1 (Homo sapiens, UniProt P17812).
T1 sequence (P17812 1-591): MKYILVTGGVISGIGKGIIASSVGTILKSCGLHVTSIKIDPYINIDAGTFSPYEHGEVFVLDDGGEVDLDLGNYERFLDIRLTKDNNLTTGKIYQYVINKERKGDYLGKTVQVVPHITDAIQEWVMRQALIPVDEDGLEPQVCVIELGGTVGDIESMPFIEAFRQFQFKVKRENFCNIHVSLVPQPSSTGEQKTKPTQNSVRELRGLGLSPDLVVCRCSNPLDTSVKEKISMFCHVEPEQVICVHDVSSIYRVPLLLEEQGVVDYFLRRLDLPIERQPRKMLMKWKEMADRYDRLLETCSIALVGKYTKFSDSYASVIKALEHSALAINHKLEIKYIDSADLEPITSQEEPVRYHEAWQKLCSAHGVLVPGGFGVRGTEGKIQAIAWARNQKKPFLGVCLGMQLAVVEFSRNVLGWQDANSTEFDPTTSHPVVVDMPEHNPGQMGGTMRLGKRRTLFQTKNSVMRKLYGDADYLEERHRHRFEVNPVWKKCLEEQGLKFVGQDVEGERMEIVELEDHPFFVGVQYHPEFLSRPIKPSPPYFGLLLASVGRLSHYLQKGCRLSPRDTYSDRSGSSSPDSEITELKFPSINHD
Description: ADP-Glo assay, human CTPS1 enzyme inhibition. It counts as biochemical. Conditions: wild-type human CTPS1, 25 nM enzyme; ADP-Glo; read-out: ADP-Glo_WT_hCTPS1—25 nM_IC50 (IC50). A digest of the protocol:
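ADP-Glo luminescence quantified ADP produced by 25 nM purified human CTPS1 (full length, FLAG-His tagged) at 25° C within the linear phase. Final substrates: ATP 120 μM, UTP 160 μM, GTP 60 μM, L-glutamine 100 μM; 1% DMSO; pH 7.4 HEPES buffer with Mg2+, KCl, DTT. Compound pre-incubated with enzyme 10 min, then with ATP/UTP 10 min.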
Take `CCOc1cncc(-c2cnc(C(=O)N[C@@H](CN3CCN(C)C(=O)C3)c3cc(NS(=O)(=O)C4CC4)ccn3)s2)n1` [I-147, (S)-N-(1-(4-(cyclopropanesulfonamido)pyridin-2-yl)-2-(4-methyl-3-oxopiperazin-1-yl)ethyl)-5-(6-ethoxypyrazin-2-yl)thiazole-2-carboxamide]: the IC50 is 5 to 25 nM.
On to `C[C@H](CN1CCCCC1)[C@H](NC(=O)c1ncc(-c2cnn3ccc(Cl)cc23)s1)c1cc(NS(=O)(=O)C2CC2)ccn1` [I-57, 5-(5-chloropyrazolo[1,5-a]pyridin-3-yl)-N-((1S,2R)-1-(4-(cyclopropanesulfonamido)pyridin-2-yl)-2-methyl-3-(piperidin-1-yl)propyl)thiazole-2-carboxamide], for which the IC50 lay within 5 to 25 nM.
Consider `CCOc1cncc(-c2cnc(C(=O)N[C@@H](c3cccc(NS(=O)(=O)C(F)F)c3)[C@H](C)O)s2)n1` [I-288, N-((1S,2S)-1-(3-((difluoromethyl)sulfonamido)phenyl)-2-hydroxypropyl)-5-(6-ethoxypyrazin-2-yl)thiazole-2-carboxamide], for which the IC50 fell in the range of 5 to 25 nM.
The figure for `O=C(N[C@H](c1cc(NS(=O)(=O)C2CC2)ccn1)[C@H]1COCCO1)c1ncc(-c2cnn3ccc(Cl)cc23)s1` [I-77, 5-(5-chloropyrazolo[1,5-a]pyridin-3-yl)-N-((R)-(4-(cyclopropanesulfonamido)pyridin-2-yl)((S)-1,4-dioxan-2-yl)methyl)thiazole-2-carboxamide] is 5 to 25 nM.
As to `CCOc1cncc(-c2cnc(C(=O)N[C@@H](c3cc(NS(=O)(=O)C4CC4)ccn3)[C@H](C)O)s2)n1` [I-270, N-((1S,2S)-1-(4-(cyclopropanesulfonamido)pyridin-2-yl)-2-hydroxypropyl)-5-(6-ethoxypyrazin-2-yl)thiazole-2-carboxamide], the IC50 was at most 5 nM.
`O=C(N[C@H](c1cc(NS(=O)(=O)C2CC2)ccn1)[C@@H]1COCCO1)c1ncc(-c2cnn3ccc(Cl)cc23)s1` [I-78, 5-(5-chloropyrazolo[1,5-a]pyridin-3-yl)-N-((R)-(4-(cyclopropanesulfonamido)pyridin-2-yl)((R)-1,4-dioxan-2-yl)methyl)thiazole-2-carboxamide]: the IC50 was 5 to 25 nM.
The figure for `CCOc1cncc(-c2cnc(C(=O)N[C@H](CN3[C@@H]4CC[C@H]3COC4)c3cc(NS(=O)(=O)C4CC4)ccn3)s2)n1` (single isomer, unassigned) [I-37] is 5 to 25 nM; for `O=C(N[C@H](c1ccnc(NS(=O)(=O)C2CC2)n1)[C@@H]1CCOC1)c1ncc(-c2cnn3ccc(Cl)cc23)s1` [I-261, 5-(5-chloropyrazolo[1,5-a]pyridin-3-yl)-N-((S)-(2-(cyclopropanesulfonamido)pyrimidin-4-yl)((S)-tetrahydrofuran-3-yl)methyl)thiazole-2-carboxamide] it is 5 to 25 nM.
As for `COCC[C@@H](NC(=O)c1ncc(-c2cnn3ccc(Cl)cc23)s1)c1cc(NS(=O)(=O)C2CC2)ccn1` (single isomer, unassigned) [I-2], the half-maximal inhibitory concentration (IC50) was 5 to 25 nM.
The figure for `C[C@H](O)[C@H](NC(=O)c1ncc(-c2cnn3ccc(Cl)cc23)s1)c1cc(NS(=O)(=O)C2CC2)ccn1` [I-272, 5-(5-chloropyrazolo[1,5-a]pyridin-3-yl)-N-((1R,2S)-1-(4-(cyclopropanesulfonamido)pyridin-2-yl)-2-hydroxypropyl)thiazole-2-carboxamide] is 5 to 25 nM; for `CCOc1cncc(-c2cnc(C(=O)N[C@H](c3cc(NS(=O)(=O)C4CC4)ccn3)[C@@H](C)OC)s2)n1` [I-45, N-((1R,2R)-1-(4-(cyclopropanesulfonamido)pyridin-2-yl)-2-methoxypropyl)-5-(6-ethoxypyrazin-2-yl)thiazole-2-carboxamide] it is 5 to 25 nM; for `CCOc1cncc(-c2cnc(C(=O)N[C@@H](c3cc(NS(=O)(=O)C4CC4)ccn3)C3CCOCC3)s2)n1` [I-19, (R)—N-((4-(cyclopropanesulfonamido)pyridin-2-yl)(tetrahydro-2H-pyran-4-yl)methyl)-5-(6-ethoxypyrazin-2-yl)thiazole-2-carboxamide] it is 5 to 25 nM.

The values are drawn from patent publication US20250270200A1, “CTPS1 INHIBITORS AND USES THEREOF” (Nimbus Clotho, Inc., priority 2022, published 2025).
